These results are taken from patent publication US20140322278A1, “Modulation of Tissue Transglutaminase Activation in Disease” (The Board of Trustees of the Leland Stanford Junior …, priority 2011, published 2014).

The structures appear in SMILES notation.

The nature of assay [1]: Reactivity of disulfide inhibitors towards dithiothreitol.
The target in a further assay is T1, human thioredoxin (Homo sapiens, UniProt P10599).
T1 construct: made in house; host or cells: E. coli
T1 sequence (P10599 1-105): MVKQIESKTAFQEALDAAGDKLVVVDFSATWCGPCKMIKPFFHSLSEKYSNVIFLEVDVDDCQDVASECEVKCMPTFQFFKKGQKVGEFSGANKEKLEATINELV
As to the kind of experiment: Inhibition of human thioredoxin by disulfide analogs of PX-12 (kinh/Ki). It is filed as biochemical. Particulars: for Trx kinh/Ki: human thioredoxin, bimolecular parameter estimating potency; for Trx/DTT: ratio of reactivity towards Trx relative to DTT (selectivity).

The target in assay [2] is T2, human transglutaminase 1 (TG1) (Homo sapiens, UniProt P22735).
T2 sequence (P22735 1-817): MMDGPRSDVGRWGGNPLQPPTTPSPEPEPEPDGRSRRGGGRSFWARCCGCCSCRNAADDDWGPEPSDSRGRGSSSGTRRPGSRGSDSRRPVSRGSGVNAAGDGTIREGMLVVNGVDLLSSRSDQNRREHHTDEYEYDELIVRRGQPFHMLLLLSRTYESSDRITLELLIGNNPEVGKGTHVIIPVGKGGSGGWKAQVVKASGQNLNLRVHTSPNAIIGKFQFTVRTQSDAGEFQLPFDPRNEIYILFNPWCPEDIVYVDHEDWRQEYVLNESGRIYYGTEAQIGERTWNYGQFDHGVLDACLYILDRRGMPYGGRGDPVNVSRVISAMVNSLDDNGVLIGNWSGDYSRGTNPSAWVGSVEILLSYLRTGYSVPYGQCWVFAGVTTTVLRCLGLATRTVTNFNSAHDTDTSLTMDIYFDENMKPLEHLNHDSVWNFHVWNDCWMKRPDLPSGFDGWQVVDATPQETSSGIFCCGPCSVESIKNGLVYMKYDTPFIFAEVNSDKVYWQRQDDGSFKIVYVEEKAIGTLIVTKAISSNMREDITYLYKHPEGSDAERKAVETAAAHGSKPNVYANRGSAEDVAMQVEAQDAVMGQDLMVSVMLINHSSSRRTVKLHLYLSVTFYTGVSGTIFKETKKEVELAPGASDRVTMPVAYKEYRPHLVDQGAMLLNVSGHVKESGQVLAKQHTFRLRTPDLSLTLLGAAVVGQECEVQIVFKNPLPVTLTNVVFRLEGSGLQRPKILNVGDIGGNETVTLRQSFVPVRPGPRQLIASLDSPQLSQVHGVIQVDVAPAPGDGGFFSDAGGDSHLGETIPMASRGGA
The assay is described as follows: TG1 inhibition kinetics (kinh/Ki). It is filed as biochemical.

For the next assay, the target named is T3, human TG2 (Homo sapiens, UniProt P21980).
T3 sequence (P21980 1-687): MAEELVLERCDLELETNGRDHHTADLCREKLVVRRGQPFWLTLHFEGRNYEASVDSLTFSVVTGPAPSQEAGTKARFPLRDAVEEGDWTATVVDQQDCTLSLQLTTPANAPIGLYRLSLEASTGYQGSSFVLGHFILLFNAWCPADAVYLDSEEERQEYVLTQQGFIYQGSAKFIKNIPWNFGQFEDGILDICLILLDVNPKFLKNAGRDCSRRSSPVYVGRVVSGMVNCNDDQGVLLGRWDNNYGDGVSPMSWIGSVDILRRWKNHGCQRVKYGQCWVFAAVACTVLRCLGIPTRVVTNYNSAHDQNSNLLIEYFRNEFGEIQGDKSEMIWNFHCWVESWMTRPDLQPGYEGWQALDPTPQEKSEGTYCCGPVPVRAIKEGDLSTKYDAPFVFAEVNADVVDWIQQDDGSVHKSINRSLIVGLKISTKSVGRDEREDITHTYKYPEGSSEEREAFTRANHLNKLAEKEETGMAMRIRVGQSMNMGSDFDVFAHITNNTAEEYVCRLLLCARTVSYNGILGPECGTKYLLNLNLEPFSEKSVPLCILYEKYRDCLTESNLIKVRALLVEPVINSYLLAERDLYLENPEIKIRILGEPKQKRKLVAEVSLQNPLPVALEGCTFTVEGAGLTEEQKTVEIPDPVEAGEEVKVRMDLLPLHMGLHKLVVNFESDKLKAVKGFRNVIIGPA
The assay is described as follows: TG2 inhibition kinetics (kinh/Ki). Type of assay: biochemical.

`CCC(C)SSc1nc2ccccc2[nH]1` (centres unmarked) [compound 3] came in with a DTT k in assay [1] of 80 M⁻¹ s⁻¹. On human thioredoxin, the “Trx kinh/Ki” value was 3170 M⁻¹ s⁻¹ and the Trx/DTT was 39.
In turn, `CCSSc1nc2ccccc2[nH]1` [compound 4] showed a DTT k in assay [1] of 900 M⁻¹ s⁻¹.
`c1ccc2[nH]c(SSC3CCCC3)nc2c1` [compound 5] displayed a DTT k in assay [1] of 53.3 M⁻¹ s⁻¹. Besides, at human thioredoxin, the “Trx kinh/Ki” value was 4000 M⁻¹ s⁻¹ and the Trx/DTT worked out at 74.
As for `CC(C)(C)SSc1nc2ccccc2[nH]1` [compound 6], the DTT k in assay [1] was about 0.467 M⁻¹ s⁻¹.
Regarding `c1ccc2[nH]c(SSC3CCCCC3)nc2c1` [compound 7], the DTT k in assay [1] was 76.7 M⁻¹ s⁻¹. On human thioredoxin, the “Trx kinh/Ki” value is 6330 M⁻¹ s⁻¹ and the Trx/DTT is recorded as 83.
Regarding `CC(C)SSc1nc2ccccc2[nH]1` [compound 8], in assay [1], the DTT k is 76.7 M⁻¹ s⁻¹. On human thioredoxin, the “Trx kinh/Ki” value was 5500 M⁻¹ s⁻¹ and the Trx/DTT is 72.
The matching figures for `CCC(C)SSc1nc2cc([N+](=O)[O-])ccc2[nH]1` (centres unmarked) [compound 9]: 40 M⁻¹ s⁻¹, 14500 M⁻¹ s⁻¹ and 362.
Take `CCC(C)SSc1nc2ccncc2[nH]1` (centres unmarked) [compound 10]: in assay [1], the DTT k is 36.7 M⁻¹ s⁻¹. On human thioredoxin, the “Trx kinh/Ki” value is 3170 M⁻¹ s⁻¹ and the Trx/DTT stood at 85.
`CCC(C)SSc1nc2ccccc2o1` (centres unmarked) [compound 12]: in assay [1], the DTT k amounted to 102 M⁻¹ s⁻¹. Also, on human thioredoxin, the “Trx kinh/Ki” value was 40000 M⁻¹ s⁻¹ and the Trx/DTT was 392.
In assay [1], `CCC(C)SSc1ccccn1` (centres unmarked) [compound 13] gave a DTT k of 0.617 M⁻¹ s⁻¹. Besides, the “Trx kinh/Ki” value on human thioredoxin was “inactive”.
As to `CCC(C)SSc1nccs1` (centres unmarked) [compound 14], in assay [1], the DTT k is 12.3 M⁻¹ s⁻¹. Moreover, at human thioredoxin, the “Trx kinh/Ki” value was 833 M⁻¹ s⁻¹ and the Trx/DTT is on record as 68.
The matching figures for `CCC(C)SSc1nc2cc(Cl)ccc2s1` (centres unmarked) [compound 15]: 2.83 M⁻¹ s⁻¹, 250 M⁻¹ s⁻¹ and 88.
`CCC(C)SSc1nc2cc([N+](=O)[O-])ccc2s1` (centres unmarked) [compound 16]: the DTT k in assay [1] was found to be 33.3 M⁻¹ s⁻¹. Besides, at human thioredoxin, the “Trx kinh/Ki” value is 5830 M⁻¹ s⁻¹ and the Trx/DTT turned out to be 175.
The molecule `CCC(C)SSc1nc2cccc(C)c2s1` (centres unmarked) [compound 17] displayed a DTT k in assay [1] of 10 M⁻¹ s⁻¹. Further, on human thioredoxin, the “Trx kinh/Ki” value was 817 M⁻¹ s⁻¹ and the Trx/DTT stood at 82.
Regarding `O=C(NC[C@@H]1CC(Br)=NO1)[C@@H]1C[C@@H](F)CN1C(=O)OCc1cnc2ccccc2c1` [compound 18], in assay [2], the “kinh/Ki TG1” value stood at 111.6 M⁻¹ s⁻¹. At human TG2, the “kinh/Ki TG2” value came to 120.8 M⁻¹ s⁻¹.
The matching figures for `O=C(NC[C@@H]1CC(Br)=NO1)[C@@H]1C[C@H](F)CN1C(=O)OCc1cnc2ccccc2c1` [compound 19]: 100.7 M⁻¹ s⁻¹ and 223.93 M⁻¹ s⁻¹.
Consider `O=C(NC[C@@H]1CC(Br)=NO1)[C@@H]1C[C@@H](O)CN1C(=O)OCc1cnc2ccccc2c1` [compound 20], for which the “kinh/Ki TG1” value in assay [2] came out at 73.12 M⁻¹ s⁻¹. The “kinh/Ki TG2” value at human TG2 amounted to 208.52 M⁻¹ s⁻¹.
As for `O=C(NC[C@@H]1CC(Br)=NO1)[C@@H]1C[C@@H](OCc2ccccc2)CN1C(=O)OCc1cnc2ccccc2c1` [compound 22], the “kinh/Ki TG2” value on human TG2 amounted to 128.5 M⁻¹ s⁻¹.
Take `C#CCO[C@@H]1C[C@@H](C(=O)NC[C@@H]2CC(Br)=NO2)N(C(=O)OCc2cnc3ccccc3c2)C1` [compound 23]: in assay [2], the “kinh/Ki TG1” value was determined as 72.33 M⁻¹ s⁻¹. On human TG2, the “kinh/Ki TG2” value stood at 142 M⁻¹ s⁻¹.
For `O=C(NC[C@@H]1CC(Br)=NO1)[C@@H]1Cc2ccccc2CN1C(=O)OCc1cnc2ccccc2c1` [compound 24], the “kinh/Ki TG2” value at human TG2 was 130 M⁻¹ s⁻¹.
On to `O=C(NC[C@@H]1CC(Br)=NO1)[C@@H]1Cc2c([nH]c3ccccc23)CN1C(=O)OCc1cnc2ccccc2c1` [compound 25], for which, at human TG2, the “kinh/Ki TG2” value was determined as 346.67 M⁻¹ s⁻¹.
As for `O=C(NC[C@@H]1CC(Br)=NO1)[C@@H]1CCCCN1C(=O)OCc1cnc2ccccc2c1` [compound 26], the “kinh/Ki TG1” value in assay [2] came to 384.87 M⁻¹ s⁻¹. Further, the “kinh/Ki TG2” value on human TG2 was determined as 138.3 M⁻¹ s⁻¹.
